# Experimental data: US20250195511A1, “INDAZOLE DERIVATIVES USEFUL AS INHIBITORS OF NOD-LIKE RECEPTOR PROTEIN 3” (Merck Sharp & Dohme LLC, priority 2023, published 2025)
# System: NLRP3 inflammasome
# Experiment: NLRP3 inflammasome activation: ASC-SPECK formation in gramicidin-stimulated THP-1 cells
# Assay type: cell-based
# Conditions: Homo sapiens, THP-1, inhibition of ASC SPECK formation; PMA-treated human monocytic THP-1 cells, compound 1 h before 12.5 μg/ml gramicidin, 3-hour treatment
# Text: Activation of the canonical NLRP3 inflammasome requires two steps, priming and activation. A priming signal such as a pathogen activated molecular patterns (PAMPs) or danger-activated molecular patterns (DAMPs) are recognized by Toll-like receptors leads to nuclear factor kappa B (NF-KB)-mediated signaling. […] The second step is activation which induces oligomerization of NLRP3 and subsequent assembly of NLRP3, apoptosis-associated speck-like protein containing a CARD (ASC), and procaspase-1 into an inflammasome complex. This triggers the transformation of procaspase-1 to caspase-1, and the production and secretion of mature IL-1β and IL-18 (Kim et al., J. Inflamm. 2015, 12, 41; Ozaki et al., J. Inflamm. Res. 2015, 8, 15-27; Rabeony et al., Eur. J. Immunol. 2015, 45, 2847). During inflammasome complex assembly, the oligomerization of NLRP3 triggers the nucleation of ASC and an event commonly referred to as “ASC SPECK” formation, as it is identified in the cell as a discrete puncta within the cell after staining and visualization of ASC using common immunocytochemical methods.
# The ability of compounds to inhibit NLRP3 inflammasome activation was determined in vitro by monitoring formation of the ASC-SPECK in human monocytic THP-1 cells after stimulation. THP-1 cells (ATCC catalog #TIB-202) were maintained in complete growth media containing Roswell Park Memorial Institute RPMI (ATCC catalog #30-2001), 10% heat inactivated fetal bovine serum, 1× penicillin/streptomycin and 0.05 mM 2-mercaptoethanol. At the start of the assay, undifferentiated THP-1 cells were plated at a density of 20,000 cells per well in a 384-well plate (Poly-D-lysine coated Cell Carrier Ultra microplate, Perkin Elmer catalog #6057500) in complete growth media supplemented with 10 ng/ml phorbol 12-myristate 13-acetate (PMA; Sigma catalog #P8139), and then incubated overnight. The next day, media was replaced with assay media (RPMI (Gibco catalog #11875-093), 0.01% bovine serum albumin (BSA)). Compounds were serially diluted in DMSO and then added to wells one hour prior to the addition of 12.5 μg/ml Gramicidin (Enzo Lifescience, catalog #ALX-350-233-M005). All incubations were carried out at 37° C. (5% CO2/95% air). Following a 3-hour treatment with gramicidin, cells are fixed with 4% paraformaldehyde and stored at 4° C. until immunofluorescence staining.
# Immunofluorescence staining: Anti-ASC antibody (MBL catalog #D086-3) was desalted and labeled with Alexa 488 antibody labeling kit (Thermo catalog #A20181) prior to use as described below. After fixation, the following steps were carried out at rt. Cells were first permeabilized with 0.3% polyethylene glycol tert-octylphenyl ether (Triton X-100) in phosphate-buffered saline (PBS) for 15 minutes and then incubated in blocking buffer containing 5% goat serum, 0.3% polyethylene glycol sorbitan monolaurate (Tween-20) and 0.03% sodium azide in PBS for 1 hour. Cells were stained with a mixture of ASC-Alexa 488 antibody (diluted 1:200 in blocking buffer) and nuclear stain DRAQ5 (1:5000 in blocking buffer, Thermo catalog #62251) in blocking buffer for 1 hour. Following a wash with 0.3% polyethylene glycol sorbitan monolaurate (Tween-20) in PBS, plates were imaged with an Opera Phenix High Content Screening System. The number of DRAQ5 positive cells containing ASC SPECKS were quantified in each well.
# Data analysis: EC50 values were calculated by standard curve-fitting analysis using an internally developed program in TIBCO Spotfire software.
row,EC50 [µM],Structure (SMILES)
1,0.189,"Cc1cc(C(F)(F)F)cc(O)c1-c1cnc2cn(C3CCP(C)(=O)CC3)nc2n1 (single isomer, unassigned) [Example 82, (1R,4R or 1S,4S)-4-(6-(2-hydroxy-6-methyl-4-(trifluoromethyl)phenyl)-2H-pyrazolo[3,4-b]pyrazin-2-yl)-1-methylphosphinane 1-oxide]"
2,0.235,"Cc1cc(C(F)(F)F)cc(O)c1-c1cnc2cn(C3CCOC(C)(C)C3)nc2n1 (single isomer, unassigned) [Example 96, (S or R)-2-(2-(2,2-dimethyltetrahydro-2H-pyran-4-yl)-2H-pyrazolo[3,4-b]pyrazin-6-yl)-3-methyl-5-(trifluoromethyl)phenol]"

# Further lines, the molecule ahead of its results:
row,Structure (SMILES),EC50 [µM]
1,"Cc1cc(C(F)(F)F)cc(O)c1-c1cnc2cn(C3(C)CCOC3)nc2n1 (single isomer, unassigned) [Example 78, (S or R)-3-methyl-2-(2-(3-methyltetrahydrofuran-3-yl)-2H-pyrazolo[3,4-b]pyrazin-6-yl)-5-(trifluoromethyl)phenol]",0.198
2,"Cc1cc(C(F)(F)F)cc(O)c1-c1cnc2cn([C@H]3CCOC[C@@H]3C)nc2n1 (single isomer, unassigned) [Example 87, 3-methyl-2-(2-((3R,4S or 3S,4R)-3-methyltetrahydro-2H-pyran-4-yl)-2H-pyrazolo[3,4-b]pyrazin-6-yl)-5-(trifluoromethyl)phenol]",0.564

# Same assay, conditions: inhibition of ASC SPECK formation; PMA-treated human monocytic THP-1 cells, compound 1 h before 12.5 μg/ml gramicidin, 3-hour treatment
row,EC50 [µM],Structure (SMILES)
1,0.173,"Cc1cc(C(F)(F)F)cc(O)c1-c1cnc2cn(C3(C)CCOC3)nc2n1 (single isomer, unassigned) [Example 79, (R or S)-3-methyl-2-(2-(3-methyltetrahydrofuran-3-yl)-2H-pyrazolo[3,4-b]pyrazin-6-yl)-5-(trifluoromethyl)phenol]"
2,0.011,"Cc1cc(C(F)(F)F)cc(O)c1-c1cnc2cn(C34COCC3C4)nc2n1 (single isomer, unassigned) [Example 83, 2-(2-((1R,5R or 1S,5S)-3-oxabicyclo[3.1.0]hexan-1-yl)-2H-pyrazolo[3,4-b]pyrazin-6-yl)-3-methyl-5-(trifluoromethyl)phenol]"
3,0.326,"Cc1cc(C(F)(F)F)cc(O)c1-c1cnc2cn([C@@H]3CCOC[C@@H]3C)nc2n1 (single isomer, unassigned) [Example 86, 3-methyl-2-(2-((3S,4S or 3R,4R)-3-methyltetrahydro-2H-pyran-4-yl)-2H-pyrazolo[3,4-b]pyrazin-6-yl)-5-(trifluoromethyl)phenol]"
4,0.101,"Cc1cc(C(F)(F)F)cc(O)c1-c1cnc2cn([C@H]3CCO[C@H](C)C3)nc2n1 (single isomer, unassigned) [Example 90, 3-methyl-2-(2-((2S,4R or 2R,4S)-2-methyltetrahydro-2H-pyran-4-yl)-2H-pyrazolo[3,4-b]pyrazin-6-yl)-5-(trifluoromethyl)phenol]"
5,0.06,"Cc1cc(C(F)(F)F)cc(O)c1-c1cnc2cn(C34CCOCC3C4)nc2n1 (single isomer, unassigned) [Example 91, 2-(2-((1R,6S or 1S,6R)-3-oxabicyclo[4.1.0]heptan-6-yl)-2H-pyrazolo[3,4-b]pyrazin-6-yl)-3-methyl-5-(trifluoromethyl)phenol]"
6,0.332,"Cc1cc(C(F)(F)F)cc(O)c1-c1cnc2cn([C@H]3CCO[C@@H](C)C3)nc2n1 (single isomer, unassigned) [Example 93, 3-methyl-2-(2-((2S,4S or 2R,4R)-2-methyltetrahydro-2H-pyran-4-yl)-2H-pyrazolo[3,4-b]pyrazin-6-yl)-5-(trifluoromethyl)phenol]"
7,0.388,"Cc1cc(C(F)(F)F)cc(O)c1-c1cnc2cn(C3CCOC(C)(C)C3)nc2n1 (single isomer, unassigned) [Example 95, (R or S)-2-(2-(2,2-dimethyltetrahydro-2H-pyran-4-yl)-2H-pyrazolo[3,4-b]pyrazin-6-yl)-3-methyl-5-(trifluoromethyl)phenol]"
8,0.237,"Cc1cc(C(F)(F)F)cc(O)c1-c1cnc2cn(C3CCOCC3(C)C)nc2n1 (single isomer, unassigned) [Example 98, (S or R)-2-(2-(3,3-dimethyltetrahydro-2H-pyran-4-yl)-2H-pyrazolo[3,4-b]pyrazin-6-yl)-3-methyl-5-(trifluoromethyl)phenol]"
9,0.58,"Cc1cc(C(F)(F)F)cc(O)c1-c1cnc2cn(C3CCOCC34CC4)nc2n1 (single isomer, unassigned) [Example 99, (R or S)-2-(2-(5-oxaspiro[2.5]octan-8-yl)-2H-pyrazolo[3,4-b]pyrazin-6-yl)-3-methyl-5-(trifluoromethyl)phenol]"

# More lines, now with the values behind:
row,Structure (SMILES),EC50 [µM]
1,"Cc1cc(C(F)(F)F)cc(O)c1-c1cnc2cn(CC3CC(=O)N(C(C)C)C3)nc2n1 (single isomer, unassigned) [Example 80, (R or S)-4-((6-(2-hydroxy-6-methyl-4-(trifluoromethyl)phenyl)-2H-pyrazolo[3,4-b]pyrazin-2-yl)methyl)-1-isopropylpyrrolidin-2-one]",0.008
2,"Cc1cc(C(F)(F)F)cc(O)c1-c1cnc2cn(CC3CC(=O)N(C(C)C)C3)nc2n1 (single isomer, unassigned) [Example 81, (S or R)-4-((6-(2-hydroxy-6-methyl-4-(trifluoromethyl)phenyl)-2H-pyrazolo[3,4-b]pyrazin-2-yl)methyl)-1-isopropylpyrrolidin-2-one]",0.437
3,"Cc1cc(C(F)(F)F)cc(O)c1-c1cnc2cn(C34COCC3C4)nc2n1 (single isomer, unassigned) [Example 84, 2-(2-((1S,5S or 1R,5R)-3-oxabicyclo[3.1.0]hexan-1-yl)-2H-pyrazolo[3,4-b]pyrazin-6-yl)-3-methyl-5-(trifluoromethyl)phenol]",0.06
4,"Cc1cc(C(F)(F)F)cc(O)c1-c1cnc2cn([C@@H]3CCOC[C@@H]3C)nc2n1 (single isomer, unassigned) [Example 85, 3-methyl-2-(2-((3R,4R or 3S,4S)-3-methyltetrahydro-2H-pyran-4-yl)-2H-pyrazolo[3,4-b]pyrazin-6-yl)-5-(trifluoromethyl)phenol]",0.042
5,"Cc1cc(C(F)(F)F)cc(O)c1-c1cnc2cn([C@H]3CCOC[C@@H]3C)nc2n1 (single isomer, unassigned) [Example 88, 3-methyl-2-(2-((3S,4R or 3R,4S)-3-methyltetrahydro-2H-pyran-4-yl)-2H-pyrazolo[3,4-b]pyrazin-6-yl)-5-(trifluoromethyl)phenol]",0.291
6,"Cc1cc(C(F)(F)F)cc(O)c1-c1cnc2cn([C@H]3CCO[C@H](C)C3)nc2n1 (single isomer, unassigned) [Example 89, 3-methyl-2-(2-((2R,4S or 2S,4R)-2-methyltetrahydro-2H-pyran-4-yl)-2H-pyrazolo[3,4-b]pyrazin-6-yl)-5-(trifluoromethyl)phenol]",0.292
7,"Cc1cc(C(F)(F)F)cc(O)c1-c1cnc2cn(C34CCOCC3C4)nc2n1 (single isomer, unassigned) [Example 92, 2-(2-((1S,6R or 1R,6S)-3-oxabicyclo[4.1.0]heptan-6-yl)-2H-pyrazolo[3,4-b]pyrazin-6-yl)-3-methyl-5-(trifluoromethyl)phenol]",0.132
8,"Cc1cc(C(F)(F)F)cc(O)c1-c1cnc2cn([C@H]3CCO[C@@H](C)C3)nc2n1 (single isomer, unassigned) [Example 94, 3-methyl-2-(2-((2R,4R or 2S,4S)-2-methyltetrahydro-2H-pyran-4-yl)-2H-pyrazolo[3,4-b]pyrazin-6-yl)-5-(trifluoromethyl)phenol]",0.092
9,"Cc1cc(C(F)(F)F)cc(O)c1-c1cnc2cn(C3CCOCC3(C)C)nc2n1 (single isomer, unassigned) [Example 97, (R or S)-2-(2-(3,3-dimethyltetrahydro-2H-pyran-4-yl)-2H-pyrazolo[3,4-b]pyrazin-6-yl)-3-methyl-5-(trifluoromethyl)phenol]",0.683
